Common to all, as to type: cell-based
Test [1] deals with histone H3 hyperacetylation in HeLa cervical carcinoma cells. The test is described as follows: Cellular histone H3 hyperacetylation assay. The conditions noted are these: Homo sapiens, 24 h treatment. In outline:
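HeLa cells treated with compound for 24 h, then fixed, permeabilized and immunostained for acetylated histone H3 (K1-20) with an Alexa Fluor 488 secondary. High-content imaging scored the percentage of cells with nuclear fluorescence; EC50 from concentration-effect curves by non-linear regression.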

Test [2] relates to fully transformed malignant cancer cell lines. Nature of the test: Anti-proliferative activity, selection of cell lines (Alamar Blue). The conditions noted are these: Homo sapiens, 72 h, mean over cell lines, read-out: Mean IC50 values as calculated for fully malignant cancer cell lines. Here is the method: (§1) The anti-proliferative activity of the histone deacetylase inhibitory compounds as described herein, is evaluated using the following cell lines: HeLa and HeLa-KB (cervical carcinoma), H460 (non small cell lung cancer), A549 (non-small cell lung cancer), MCF7 (breast carcinoma), MCF10A (normal, non tumorigenic breast epithelial), MDA-MB468 (breast carcinoma), MDA-MB435 (breast carcinoma), MDA-MB231 (breast carcinoma), SKBR-3 (breast carcinoma), SKOV-3 (ovarial carcinoma), A-2780 (ovarial carcinoma), RKO (colon carcinoma), HCT-15 (colon carcinoma), HCT-116 (colon carcinoma), PC3 (prostate carcinoma), BPH1 (benign prostate hyperplasia), AsPC1 (pancreatic carcinoma), Ca127 (tongue carcinoma), A-431 (vulva carcinoma), Hec1A (endometrial carcinoma), Saos-2 (osteosarcoma), U87MG (glioblastoma), WM266-4 (melanoma), K562 (chronic myeloid leukemia), EOL1 (acute hypereosinophilic myeloid leukemia), CCRF-CEM and CCRF-CEM VCR1000 (acute lymphoblastic leukemia sensitive and resistant towards Vincristine). For quantification of cellular proliferation/living cells the Alamar Blue (Resazurin) cell viability assay is applied (O'Brien et al. Eur J Biochem 267, 5421-5426, 2000). In this assay Resazurin is reduced to the fluorescent resorufine by cellular dehydrogenase activity, correlating with viable, proliferating cells. The examples are dissolved as 20 mM solutions in dimethylsulfoxide (DMSO) and subsequently diluted in semi-logarithmic steps. Cell lines are seeded at respective density into 96 well flat bottom plates in a volume of 200 μl per well. 24 h after seeding 1 μl each of the compound dilutions are added into each well of the 96 well plate. Each compound dilution is tested as quadruplicates. Wells containing untreated control cells are filled with 200 μl DMEM medium containing 0.5% v:v DMSO. The cells are then incubated with the compounds for 72 h at 37° C. in a humidified atmosphere containing 5% carbon dioxide. To determine the viability of the cells, 20 μl of a Resazurin solution (Sigma; 90 mg/l) are added. After 4 h incubation at 37° C. the fluorescence is measured at an extinction of λ=544 nm and an emission of λ=590 nm. For the calculation of the cell viability the emission value from untreated cells is set as 100% viability and the emission rates of treated cells are set in relation to the values of untreated cells. Viabilities are expressed as % values. The corresponding IC50 values of the compounds for cytotoxic activity are determined from the concentration-effect curves by means of non-linear regression.
The anti-proliferative activity of compounds from examples 1, 2, 3, 12 and 150 is evaluated by using a broad selection of non-malignant cell lines and fully transformed malignant cancer cell lines.

The subject of test [3] is RKO colon carcinoma cells with conditional p21^waf1 expression. Nature of the test: Cell cycle dependent cytotoxicity, RKO exop21 cell system. The settings on record: Homo sapiens, 72 h. Here is the method:
as §1
For determination of cell-cycle dependent cytotoxicity, the RKO exop21 cell system is applied (Schmidt et al. Oncogene 19: 2423-2429, 2000). Briefly, RKO cells with/without p21^waf1 expression (2×10^4 cells/well induced, 6×10^3 cells/well not induced) are treated with the compounds for 72 h and metabolic activity quantified as described before. The expression of p21^waf1 was induced by treatment with Pronasterone A, causing a complete proliferation arrest of RKO cells in the G1 and G2 phases of the cell division cycle.

[4] abbreviates: read-out: EC50, induction of histone H3 hyperacetylation.
Setting [5] is: read-out: −lg EC50, induction of histone H3 hyperacetylation.
[6] abbreviates: RKO arrested, p21^waf1 expressed, read-out: RKO arrested (p21^waf1 expressed) IC50.
[7] abbreviates: RKO proliferating, p21^waf1 not induced, read-out: RKO proliferating IC50.

Like-named read-outs stand apart in the source and are kept apart here.

By EC50 is commonly meant the concentration at which the effect is half-maximal. A word on the IC50: it is the concentration that gives 50% inhibition. As to `COc1ccc(NC(=O)N2CCc3nc(C(=O)Nc4ccccc4N)sc3C2)cc1` [Example 3, N^2-(2-aminophenyl)-N5-(4-methoxyphenyl)-6,7-dihydro[1,3]thiazolo[5,4-c]pyridine-2,5(4H)-dicarboxamide], the half-maximal effective concentration (EC50) in test [1] (setting [4]) was in the range of 0.15 to 15 µM; in test [1] (setting [5]), 0.251 to 15.8 µM. Moreover, the IC50 in test [2] is 2.4 to 5.4 µM; in test [3] (setting [6]), 1.1 to 4.9 µM; in test [3] (setting [7]), 1.1 to 4 µM.
For the compound `Nc1ccccc1NC(=O)c1nc2c(s1)CN(C(=O)Nc1cnc3ccccc3c1)CC2` [Example 12, N^2-(2-aminophenyl)-N5-quinolin-3-yl-6,7-dihydro[1,3]thiazolo[5,4-c]pyridine-2,5(4H)-dicarboxamide], the concentration for a half-maximal effect (EC50) fell in the range of 0.15 to 15 µM in test [1] (setting [4]) and 0.251 to 15.8 µM in test [1] (setting [5]). For the same compound, the values for the 50% inhibitory concentration (IC50) in test [2], in test [3] (setting [6]) and in test [3] (setting [7]) were 2.4 to 5.4 µM, 1.1 to 4.9 µM and 1.1 to 4 µM, respectively.
Regarding `CN(C)c1ccc(NC(=O)N2CCc3nc(C(=O)Nc4ccccc4N)sc3C2)cc1` [Example 2, N^2-(2-aminophenyl)-N5-[4-(dimethylamino)phenyl]-6,7-dihydro[1,3]thiazolo[5,4-c]pyridine-2,5(4H)-dicarboxamide], the 50% effective concentration (EC50) in test [1] (setting [4]) lay in the range of 0.15 to 15 µM; in test [1] (setting [5]), 0.251 to 15.8 µM. Besides, the IC50 is 2.4 to 5.4 µM in test [2], 1.1 to 4.9 µM in test [3] (setting [6]) and 1.1 to 4 µM in test [3] (setting [7]).
For the compound `Nc1ccccc1NC(=O)c1nc2c(s1)CN(C(=O)Nc1ccc(-c3ccccc3)cc1)CC2` [Example 1, N^2-(2-aminophenyl)-N5-biphenyl-4-yl-6,7-dihydro[1,3]thiazolo[5,4-c]pyridine-2,5(4H)-dicarboxamide], the EC50 in test [1] (setting [4]) lay in the range of 0.15 to 15 µM; in test [1] (setting [5]), 0.251 to 15.8 µM. The half-inhibitory concentration (IC50) in test [2] is 2.4 to 5.4 µM; in test [3] (setting [6]) it was 1.1 to 4.9 µM; in test [3] (setting [7]), 1.1 to 4 µM.

(Values after patent publication US8440830B2, “Tetrahydro-fused pyridines as histone deacetylase inhibitors” (4SC AG, priority 2007, dated 2013).)
